The test concerns the target Mushroom tyrosinase (Agaricus bisporus, UniProt O42713+Q00024+C7FF04+C7FF05). Briefly: Inhibition of mushroom tyrosinase preincubated for 5 mins followed by addition of […] as substrate measured after 30 mins.
With `O=C1CSC(c2ccc(O)cc2)N1c1ccc(-c2ccc(N3C(=O)CSC3c3ccc(O)cc3)cc2)cc1` (stereo not drawn), the IC50 is 342.52 µM.

As to `COc1cc(C2SCC(=O)N2c2ccc(-c3ccc(N4C(=O)CSC4c4ccc(O)c(OC)c4)c(C)c3)cc2C)ccc1O` (stereo not drawn), the IC50 came out at 2.81 µM.

Compound `O=C1CSC(c2ccccc2O)N1c1ccc(-c2ccc(N3C(=O)CSC3c3ccccc3O)cc2)cc1` (stereo not drawn) showed an IC50 of 0.61 µM.

The compound `COc1cc(C2SCC(=O)N2c2ccc(-c3ccc(N4C(=O)CSC4c4ccc(O)c(OC)c4)cc3)cc2)ccc1O` (stereo not drawn) displayed an IC50 of 2.41 µM.

In turn, `Cc1cc(-c2ccc(N3C(=O)CSC3c3ccccc3)c(C)c2)ccc1N1C(=O)CSC1c1ccccc1` (stereo not drawn) displayed an IC50 of 7.71 µM.

As for `O=C1CSC(c2ccccc2)N1c1ccc(-c2ccc(N3C(=O)CSC3c3ccccc3)cc2)cc1` (stereo not drawn), the concentration for half-maximal inhibition (IC50) came to 21.61 µM. Compared with the last compound, the IC50 is about 2.8-fold higher.

The compound `COc1ccc(C2SCC(=O)N2c2ccc(-c3ccc(N4C(=O)CSC4c4ccc(OC)cc4)cc3)cc2)cc1` (stereo not drawn) showed an IC50 of 4.41 µM.

`Cc1cc(-c2ccc(N3C(=O)CSC3c3ccc(N(C)C)cc3)c(C)c2)ccc1N1C(=O)CSC1c1ccc(N(C)C)cc1` (stereo not drawn) registered an IC50 of less than 500 µM.

As usually defined, the IC50 is the concentration that inhibits the measured activity by half. A lower IC50 goes with higher potency.

The values above are taken from ChEMBL document CHEMBL4033656, “Organocatalyzed and mechanochemical solvent-free synthesis of novel and functionalized bis-biphenyl substituted thiazolidinones as potent tyrosinase inhibitors: SAR and molecular modeling studies” (Eur J Med Chem, 2017).
